Source: patent publication US8129355B2, “Ketone ligands for modulating the expression of exogenous genes via an ecdysone receptor complex” (priority 2002, dated 2012)
“And” between values parts separate entries of the source, which are not always exact repeats. Equal values may be shown once.

Experiments:
[1] = target: T1, Bombyx mori EcR (VP16 fusion, switch construct CVBE) with 6XEcRE LacZ reporter (Bombyx mori, UniProt P49881); assay: Z3 assay: β-galactosidase (LacZ) reporter gene fold induction in stably transformed human 293 kidney cells (clone Z3); assay type: cell-based; details: for CC50: average, dose response, three-parameter logistic model, read-out: Z3 LC50; for Z3 Rel Max FI: maximum fold induction at any concentration relative to that of GS-E ligand
T1 construct: expressed in transfected cells; host or cells: Human 293 kidney (HEK-293) cells, retrovirally infected, clone Z3
T1 sequence (P49881 86-606 limits assumed): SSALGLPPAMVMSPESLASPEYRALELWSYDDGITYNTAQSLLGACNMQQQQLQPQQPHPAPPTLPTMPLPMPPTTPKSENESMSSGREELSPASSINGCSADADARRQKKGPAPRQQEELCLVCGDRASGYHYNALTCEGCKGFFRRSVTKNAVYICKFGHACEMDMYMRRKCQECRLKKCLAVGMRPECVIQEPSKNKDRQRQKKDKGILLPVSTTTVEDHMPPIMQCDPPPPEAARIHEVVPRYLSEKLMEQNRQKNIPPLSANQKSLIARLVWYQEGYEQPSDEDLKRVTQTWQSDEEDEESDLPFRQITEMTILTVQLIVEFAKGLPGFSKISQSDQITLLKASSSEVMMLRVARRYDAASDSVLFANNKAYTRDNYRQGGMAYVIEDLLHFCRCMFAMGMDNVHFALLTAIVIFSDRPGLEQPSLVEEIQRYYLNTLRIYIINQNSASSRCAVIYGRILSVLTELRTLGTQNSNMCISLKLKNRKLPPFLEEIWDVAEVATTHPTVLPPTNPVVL
T1 sequence (P19793 1-462 partner): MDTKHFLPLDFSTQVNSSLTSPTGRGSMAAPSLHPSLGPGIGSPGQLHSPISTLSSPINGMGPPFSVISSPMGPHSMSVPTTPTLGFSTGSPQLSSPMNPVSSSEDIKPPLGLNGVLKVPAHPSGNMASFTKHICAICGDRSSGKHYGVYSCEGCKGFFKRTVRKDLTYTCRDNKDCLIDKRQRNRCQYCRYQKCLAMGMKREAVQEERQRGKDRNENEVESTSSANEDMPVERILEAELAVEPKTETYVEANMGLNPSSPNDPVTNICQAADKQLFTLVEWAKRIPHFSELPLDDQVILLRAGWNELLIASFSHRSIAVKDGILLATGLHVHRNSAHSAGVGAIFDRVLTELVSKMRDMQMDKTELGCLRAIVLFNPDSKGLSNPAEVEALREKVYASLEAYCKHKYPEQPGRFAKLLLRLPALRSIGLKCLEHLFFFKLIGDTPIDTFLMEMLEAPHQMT
Text: Dr. F. Gage provided a population of stably transformed cells containing CVBE and 6XEcRE as described in Suhr, S. T., Gil, E. B., Senut M. C., Gage, F. H. (1998) Proc. Natl. Acad. Sci. USA 95, 7999-804. Human 293 kidney cells, also referred to as HEK-293 cells, were sequentially infected with retroviral vectors encoding first the switch construct CVBE, and subsequently the reporter construct 6XEcRE Lac Z. The switch construct contained the coding sequence for amino acids 26-546 from Bombyx mori EcR (BE) (Iatrou) inserted in frame and downstream of the VP16 transactivation domain (VBE). A synthetic ATG start codon was placed under the control of cytomegalovirus (CVBE) immediate early promoter and flanked by long terminal repeats (LTR). The reporter construct contained six copies of the ecdysone response element (EcRE) binding site placed upstream of LacZ and flanked on both sides with LTR sequences (6XEcRE).
Dilution cloning was used to isolate individual clones. Clones were selected using 450 ug/mL G418 and 100 ng/mL puromycin. Individual clones were evaluated based on their response in the presence and absence of test ligands. Clone Z3 was selected for screening and SAR purposes.
Human 293 kidney cells stably transformed with CVBE and 6XEcRE lack were maintained in Minimum Essential Medium (Mediates, 10-010-CV) containing 10% FBS (Life Technologies, 26140-087), […] G418 (Mediates, 30-234-CR), and […] (Sigma, P-7255), at 37° C. in an atmosphere containing 5% CO2 and were subculture when they reached 75% confluence.
Z3 cells were seeded into 96-well tissue culture plates at a concentration of 2.5×10^3 cells per well and incubated at 37° C. in 5% CO2 for twenty-four hours. Stock solutions of ligands were prepared in DMSO. Ligand stock solutions were diluted 100 fold in media and 50 μL of this diluted ligand solution (33 μM) was added to cells. The final concentration of DMSO was maintained at […] in both controls and treatments.
Reporter gene expression was evaluated 48 hours after treatment of cells, β-galactosidase activity was measured using Gal Screen™ bioluminescent reporter gene assay system from Tropix (GSY1000).
Flanking both constructs are long terminal repeats, G418 and puromycin are selectable markers, CMV is the cytomegalovirus promoter, VBE is coding sequence for amino acids 26-546 from Bombyx mori EcR inserted downstream of the VP16 transactivation domain, 6×EcRE is six copies of the ecdysone response element, lacZ encodes for the reporter enzyme β-galactosidase. Suhr, S. T., Gil, E. B., Senut M. C., Gage, F. H. (1998) Proc. Natl. Acad. Sci. USA 95, 7999-804. Swevers, L., Drevet, J. R., Lunke, M. D., Iatrou, K. (1995) Insect Biochem. Mol. Biol. 25, 857-866.

[2] = target: T2, GAL4 DBD (1-147)-CfEcR(DEF)/VP16AD-βRXREF-LmUSPEF (Choristoneura fumiferana, UniProt O77240); assay: 27-63 assay: luciferase reporter gene expression in stable CHO cell clone 27-63; details: for CC50: read-out: 27-63 LC50, average, dose response; for CC50 / EC50: three-parameter logistic model; for EC50: 27-63 EC50 (μM), CHO clone 27-63, luciferase reporter 48 h after treatment, dose response 8 concentrations 33 μM to 0.01 μM
T2 sequence (O77240 191-513): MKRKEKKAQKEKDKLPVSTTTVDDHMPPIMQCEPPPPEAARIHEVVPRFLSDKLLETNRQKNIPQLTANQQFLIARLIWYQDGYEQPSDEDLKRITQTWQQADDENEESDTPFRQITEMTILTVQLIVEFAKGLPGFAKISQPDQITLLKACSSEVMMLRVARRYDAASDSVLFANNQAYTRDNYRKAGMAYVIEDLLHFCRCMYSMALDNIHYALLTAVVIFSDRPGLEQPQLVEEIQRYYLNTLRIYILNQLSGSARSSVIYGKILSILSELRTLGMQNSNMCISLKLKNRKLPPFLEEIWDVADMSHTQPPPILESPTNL
T2 sequence (P28702 296-455 partner limits assumed): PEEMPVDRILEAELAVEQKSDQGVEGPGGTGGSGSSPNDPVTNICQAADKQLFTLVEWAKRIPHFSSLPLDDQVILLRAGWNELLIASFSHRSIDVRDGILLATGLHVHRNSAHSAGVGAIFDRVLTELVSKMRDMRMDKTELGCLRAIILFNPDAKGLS
Text: GAL4 DBD (1-147)-CfEcR(DEF)/VP16AD-βRXREF-LmUSPEF: The wild-type D, E, and F domains from spruce budworm Choristoneura fumiferana EcR (“CfEcR-DEF”; SEQ ID NO: 1) were fused to a GAL4 DNA binding domain (“Gal4 DBD1-147”; nucleotides 31 to 471 of SEQ ID NO: 2) and placed under the control of a phosphoglycerate kinase promoter (“PGK”; SEQ ID NO: 3). Helices 1 through 8 of the EF domains from Homo sapiens RXRβ and helices 9 through 12 of the EF domains of Locusta migratoria Ultraspiracle Protein (“HsRXRβ-EF-LmUSP-EF”; SEQ ID NO: 4) were fused to the transactivation domain from VP16 (“VP16AD”; SEQ ID NO: 5) and placed under the control of an elongation factor-1α promoter (“EF-1α”; SEQ ID NO: 6). Five consensus GAL4 response element binding sites (“5XGAL4RE”; comprising 5 copies of a GAL4RE comprising SEQ ID NO: 7) were fused to a synthetic TATA minimal promoter (SEQ ID NO: 8) and placed upstream of the luciferase reporter gene (SEQ ID NO: 9).
CHO cells were transiently transfected with transcription cassettes for GAL4 DBD (1-147) CfEcR(DEF) and for VP16AD βRXREF-LmUSPEF controlled by ubiquitously active cellular promoters (PGK and EF-1α, respectively) on a single plasmid. Stably transfected cells were selected by Zeocin resistance. Individually isolated CHO cell clones were transiently transfected with a GAL4 RE-luciferase reporter (pFR Luc). 27-63 clone was selected using Hygromycin.
(§1) Cells were trypsinized and diluted to a concentration of 2.5×10^4 cells mL. 100 μL of cell suspension was placed in each well of a 96 well plate and incubated at 37° C. under 5% CO2 for 24 h. Ligand stock solutions were prepared in DMSO and diluted 300 fold for all treatments. Dose response testing consisted of 8 concentrations ranging from 33 μM to 0.01 μM.
(§2) Luciferase reporter gene expression was measured 48 h after cell treatment using Bright-Glo™ Luciferase Assay System from Promega (E2650). Luminescence was detected at room temperature using a Dynex MLX microtiter plate luminometer.
(§3) Fold inductions were calculated from single dose testing by dividing relative light units (RLU) in ligand treated cells by RLU in DMSO treated cells. BC50s were calculated from dose response data using a three-parameter logistic model.

[3] = target: T3, GAL4 DBD-CfEcR(DEF)/VP16AD-MmRXRE (Choristoneura fumiferana, UniProt O77240); assay: cell-based
T3 sequence (O77240 1-513): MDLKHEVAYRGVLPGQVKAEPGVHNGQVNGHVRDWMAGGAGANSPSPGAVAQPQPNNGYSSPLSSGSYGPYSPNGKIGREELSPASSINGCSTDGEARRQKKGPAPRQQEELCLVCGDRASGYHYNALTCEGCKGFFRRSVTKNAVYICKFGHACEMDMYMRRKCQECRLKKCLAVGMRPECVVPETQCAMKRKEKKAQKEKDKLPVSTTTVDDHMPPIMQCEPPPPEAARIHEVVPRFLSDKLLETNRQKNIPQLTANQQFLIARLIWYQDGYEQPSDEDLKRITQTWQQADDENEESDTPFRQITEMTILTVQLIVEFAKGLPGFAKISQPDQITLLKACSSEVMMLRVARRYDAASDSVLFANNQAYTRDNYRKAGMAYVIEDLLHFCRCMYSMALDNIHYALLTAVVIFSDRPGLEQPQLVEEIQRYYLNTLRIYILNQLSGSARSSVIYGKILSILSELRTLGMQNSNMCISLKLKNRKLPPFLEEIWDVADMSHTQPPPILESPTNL
Text: GAL4 DBD-CfEcR(DEF)/VP16AD-MmRXRE: The wild-type D, E, and F domains from spruce budworm Choristoneura fumiferana EcR (“CfEcR-DEF”; SEQ ID NO: 1) were fused to a GAL4 DNA binding domain (“Gal4 DBD1-147”; nucleotides 31 to 471 of SEQ ID NO: 2) and placed under the control of the SV40e promoter of pM vector (PT3119-5, Clontech, Palo Alto, Calif.). The D and E domains from Mus Musculus RXR (“MmRXR-DE”; SEQ ID NO: 10) were fused to the transactivation domain from VP16 (“VP16AD”; SEQ ID NO: 5) and placed under the control of the SV40e promoter of the pVP16 vector (PT3127-5, Clontech, Palo Alto, Calif.).
CHO cells were transienty transfected with transcription cassettes for GAL4 DBD-CfEcR(DEF) and for VP16AD-MmRXRE controlled by SV40e promoters. Stably transfected cells were selected using Hygromycin. Individually isolated CHO cell clones were transiently transfected with a GAL4 RE-luciferase reporter (pMR-Luc, Stratagene, La Jolla, Calif.). The 13B3 clone was selected using Zeocin.
as §1, §2, §3

[4] = maximum fold induction at any concentration relative to that of GS-E ligand
[5] = maximum fold induction at any concentration relative to maximum fold induction of GS™-E ligand, CHO clone 27-63

Row | SMILES | CC50 [1] | Z3 Rel Max FI [1] | 27-63 Rel Max FI [2, 4] | CC50 [2] | Fold Induction Average, Z3 Assay (33 μM) ([1]; single dose 33 μM, ligand treated / DMSO treated cells) | Fold Induction Average, 13B3 Assay (33 μM) [3] | EC50 [2] | 27-63 Rel Max FI [2, 5]
1 | CCc1c(C(=O)NC2(C(=O)c3cc(C)cc(C)c3)CCCCC2)ccc2c1OCCO2 [Example 80] | 0.74 µM | 0.89 | 0.91 | 0.39 µM |  |  |  | 
2 | Cc1cc(C)cc(C(=O)C2(NC(=O)c3ccc4c(c3C)OCO4)CCCCC2)c1 [Example 81] | 3.68 µM | 0.81 | 0.91 | 3.22 µM |  |  |  | 
3 | Cc1cc(C)cc(C(=O)C2(NC(=O)c3ccc4c(c3)OCCO4)CCCCC2)c1 [Example 82] | 1.99 µM | 0.79 | 0.84 | 1.78 µM |  |  |  | 
4 | COc1ccccc1C(=O)NC(C)(C)C(=O)c1cc(C)cc(C)c1 [Example 119] |  |  |  |  | 1 | 0 |  | 
5 | Cc1cc(C)cc(C(=O)C2(NS(=O)(=O)c3ccc4c(c3)COCO4)CCCCC2)c1 [Example 179] |  |  |  |  |  |  | 6.53 µM | 0.28
6 | Cc1ccc(S(=O)(=O)NC2(C(=O)c3cc(C)cc(C)c3)CCCC2)cc1 [Example 180] |  |  |  |  |  |  | 1.24 µM and 1.8 µM | 0.86 and 1.00
